Test results published in US11717536B2, “Treatment for periodontitis” (THE UNIVERSITY OF MELBOURNE, priority 2017, dated 2023).
“Also recorded” adds a separate entry of the source.

Tests used:
[1] = system: Lautropia mirabilis; experiment: Clinical trial: plaque microbial analysis, Lautropia mirabilis; type: in vivo; conditions: 18.8 mg CPP-ACP sugar-free gum, 20 min six times per day, 14 days, vs no gum chewing; supragingival plaque
Excerpt: Following the completion of the examination and supragingival plaque collection, participants received a supragingival scaling, clean and prophylaxis of all their teeth. At the completion of the last examination for leg 3, each participant received a professional fluoride treatment.
Participants had all supragingival plaque collected from the buccal surfaces of their maxillary molars (teeth 17, 16, 26 & 27) with a sterile scaling instrument. The plaque samples from each tooth were placed in separate sterile tubes, to give four samples per participant.
Genomic DNA was extracted from the plaque using a combination of mechanical disruption of the cells via a Precellys homogeniser and the chemical extraction and purification of the genomic DNA via the PowerLyzer PowerSoil DNA Isolation Kit (MoBio). Quantitation of the extracted DNA was achieved using a Qubit dsDNA High Sensitivity Assay kit (ThermoFisher), before 5 ng DNA was used as template in a PCR reaction that amplified the V4 variable region of the 16S ribosomal RNA gene and individually barcoded the PCR product from each sample. The barcoded DNA was then sequenced using an Ion Torrent Personal Genome machine and Torrent Suite™ Software (ThermoFisher).
Analysis of the resulting sequence of the 16S ribosomal RNA gene enabled identification of the bacterial population present in each sample, down to the species level. […]

[2] = system: Lactobacillus casei (NCDO 161); experiment: Six species polymicrobial biofilm in constant-depth film fermenter, species composition: L. casei; type: cell-based
Description: (§1) To model supragingival plaque six representative oral bacterial species, Streptococcus sanguinis (NCTC 7863), Streptococcus mutans Ingbritt, Actinomyces naeslundii (NCTC 10301), Veillonella parvula (ATCC 17745), Lactobacillus casei (NCDO 161) and Fusobacterium nucleatum (ATCC 10953) (Table 5) were cultured as a polymicrobial biofilm on a human enamel substratum in a constant-depth film fermenter (CDFF; Cardiff University, UK). The CDFF was housed in a 37° C. incubator under anaerobic conditions which were maintained by a constant flow of 5% CO2 in N2 at 1 L/h. The CDFF contained 15 removable polytetrafluoroethylene (PTFE) pans on a circular platform that was rotated at a constant speed of three rpm. The biofilms were grown on three enamel blocks (see below) in each PTFE pan using an artificial saliva medium (ASM, 2.5 g/L mucin type II (porcine, gastric, Sigma), 2.0 g/L bacteriological peptone (Oxoid), 2.0 g/L tryptone (Oxoid), 1.0 g/L yeast extract (Oxoid), 0.35 g/L NaCl, 0.2 g/L KCl, 0.2 mg/L vitamin K, 1 mg/L haemin and 0.1 g/L cysteine hydrochloride) at a constant flow rate of 30 mL/h. Prior to inoculation, the CDFF pan surfaces were conditioned for 24 h with ASM at a flow rate of 10 mL/h (McBain et al (2003) J Appl Microbiol. 94(4):655-66). In order to mimic in vivo bacterial growth conditions in the oral cavity with dietary sugar intake and to provide a high cariogenic challenge, a 1% (w/v) sucrose solution in ASM was pumped into the CDFF four times a day at four hourly intervals with a flow rate of 30 mL/h for 10 min.
(§2) Three treatments were applied to the polymicrobial biofilms: 290 ppm fluoride with 220 ppm fluoride as SnF2 and 70 ppm fluoride as NaF (referred to as SnF2), 2% CPP-ACP and 2% CPP-ACP-SnF2. These treatments were compared with the control in which the test solution was replaced with ASM. Each treatment was applied using two 10 min pulses of the test solution in ASM with a flow rate of 30 mL/h. The first pulse started 30 min prior to the first sucrose pulse of the morning and the second started 3 h 30 min after the final sucrose pulse of the day.
(§3) On day 6, 12 and 19 after inoculation four pans were removed aseptically from the CDFF and replaced with blank sterile pans. Enamel blocks from the pans were removed for bacterial enumeration and transverse microradiography.
Planktonic and loosely attached bacterial cells were firstly removed from the enamel blocks by light washing with 100 μL ASM. […]
For each timepoint, DNA was extracted separately from 8-9 enamel blocks using PowerLyzer® PowerSoil® DNA Isolation Kits (MoBio Laboratories) following the manufacturers “Vacuum Protocol” with a Precellys® bead homogeniser (Bertin Technologies). Samples were quantified using a Qubit™ dsDNA HS assay kit (Life Technologies) before being stored at −80° C. […]

[3] = system: Fusobacterium nucleatum (ATCC 10953); experiment: Six species polymicrobial biofilm in constant-depth film fermenter, species composition: F. nucleatum; type: cell-based
Description: as §1, §2, §3
Planktonic and loosely attached bacterial cells were firstly removed from the enamel blocks by light washing with 100 μL ASM. To harvest the biofilm cells on each block, the surface was scraped with a sterile scraper with 1 mL of ASM. The biofilm bacterial cells were sedimented by centrifugation (10,000 g, 10 min), the supernatant carefully decanted and the cell pellets stored at −80° C. until required for DNA extraction. The enamel blocks were then used for sectioning and microradiography.
For each timepoint, DNA was extracted separately from 8-9 enamel blocks using PowerLyzer® PowerSoil® DNA Isolation Kits (MoBio Laboratories) following the manufacturers “Vacuum Protocol” with a Precellys® bead homogeniser (Bertin Technologies). Samples were quantified using a Qubit™ dsDNA HS assay kit (Life Technologies) before being stored at −80° C.
The Ion Amplicon Library Preparation Fusion Method (Thermo Fisher Scientific), was adapted for amplification of the V4 region of the 16S rRNA gene. […]

[4] = 19 days, mean ± standard deviation, n = 5-21

## Casein phosphopeptide-amorphous calcium phosphate [CPP-ACP]
[1]
  % decrease in relative abundance, Lautropia mirabilis: 70% (p < 0.05)
[2]; [4]
  L. casei as a percentage of total bacteria in the biofilm: 0.38 ± 0.23^ac %
[2]; twice daily treatment, day 19
  change in abundance of L. casei relative to the control (in words): dramatically decreased; also recorded: suppressed the emergence
[2]; twice daily treatment, consistent
  decrease in relative abundance of L. casei compared with the control: > 95%
[3]; [4]
  F. nucleatum as a percentage of total bacteria in the biofilm: 2.43 ± 1.21^ace %
[3]; day 19, FIG. 5B
  change in abundance of F. nucleatum after treatment relative to the control (increase): 355%
[3]; twice daily treatment, day 19
  change in abundance of F. nucleatum relative to the control (in words): significantly increased; also recorded: reproducible increases
